What was measured:
Assay in all cases: Eurofins kinase selectivity profile against 380 other human recombinant kinases (Table S2)
Assay type in all cases: biochemical
[1] = target: T1, 380 human recombinant protein kinases (Homo sapiens, UniProt Q8IZX4); conditions: TAF1L(h), read-out: Inhibition rate (%)
T1 construct: purchased Eurofins (Celle Lévescault)
Summary of the method: (§1)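 To gauge specificity for MK2, the compound is profiled externally at various concentrations on recombinant human kinases, 380 in total.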

[2] = target: T2, 380 human recombinant protein kinases (Homo sapiens, UniProt Q8WU08); conditions: STK32A(h), read-out: Inhibition rate (%)
T2 construct: purchased Eurofins (Celle Lévescault)
T2 sequence (Q8WU08 whole entry): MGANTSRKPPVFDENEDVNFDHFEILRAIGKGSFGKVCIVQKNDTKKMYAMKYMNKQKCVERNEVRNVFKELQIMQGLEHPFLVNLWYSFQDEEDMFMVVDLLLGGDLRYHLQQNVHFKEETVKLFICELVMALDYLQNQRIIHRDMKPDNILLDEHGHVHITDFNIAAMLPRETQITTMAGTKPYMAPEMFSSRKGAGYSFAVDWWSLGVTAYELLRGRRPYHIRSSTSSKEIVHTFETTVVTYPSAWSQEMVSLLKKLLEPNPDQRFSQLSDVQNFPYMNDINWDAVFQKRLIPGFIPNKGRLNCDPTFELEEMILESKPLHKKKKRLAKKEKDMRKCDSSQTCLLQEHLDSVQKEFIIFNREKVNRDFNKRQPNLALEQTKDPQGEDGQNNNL
Summary of the method: as §1

[3] = target: T3, 380 human recombinant protein kinases (Homo sapiens, UniProt P10721); conditions: cKit(h), read-out: Inhibition rate
T3 construct: purchased Eurofins (Celle Lévescault)
Summary of the method: as §1

[4] = target: T4, 380 human recombinant protein kinases (Homo sapiens, UniProt Q5MAI5); conditions: CDKL4(h), read-out: Inhibition rate
T4 construct: purchased Eurofins (Celle Lévescault)
T4 sequence (Q5MAI5 whole entry): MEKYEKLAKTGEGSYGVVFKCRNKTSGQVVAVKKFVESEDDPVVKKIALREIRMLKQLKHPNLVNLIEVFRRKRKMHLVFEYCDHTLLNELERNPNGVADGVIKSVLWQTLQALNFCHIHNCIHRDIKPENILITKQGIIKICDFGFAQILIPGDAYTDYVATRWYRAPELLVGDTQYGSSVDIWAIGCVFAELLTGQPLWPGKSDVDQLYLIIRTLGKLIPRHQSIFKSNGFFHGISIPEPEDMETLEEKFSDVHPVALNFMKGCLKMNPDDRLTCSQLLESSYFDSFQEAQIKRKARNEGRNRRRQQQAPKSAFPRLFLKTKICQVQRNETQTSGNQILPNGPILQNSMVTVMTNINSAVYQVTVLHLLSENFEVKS
Summary of the method: as §1

[5] = target: T5, 380 human recombinant protein kinases (Homo sapiens, UniProt P15735); conditions: PhKγ2(h), read-out: Inhibition rate
T5 construct: purchased Eurofins (Celle Lévescault)
T5 sequence (P15735 1-406): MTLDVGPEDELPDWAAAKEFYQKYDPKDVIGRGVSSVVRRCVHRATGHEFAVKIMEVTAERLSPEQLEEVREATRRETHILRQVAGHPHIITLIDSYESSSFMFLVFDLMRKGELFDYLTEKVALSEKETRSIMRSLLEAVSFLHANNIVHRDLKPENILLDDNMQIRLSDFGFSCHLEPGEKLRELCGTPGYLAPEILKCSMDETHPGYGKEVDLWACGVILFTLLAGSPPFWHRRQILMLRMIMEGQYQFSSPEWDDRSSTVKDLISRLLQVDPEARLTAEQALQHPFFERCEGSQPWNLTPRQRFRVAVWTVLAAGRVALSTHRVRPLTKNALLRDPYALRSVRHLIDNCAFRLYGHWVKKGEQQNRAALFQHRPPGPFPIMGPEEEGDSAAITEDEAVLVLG
Summary of the method: as §1

[6] = target: T6, 380 human recombinant protein kinases (Homo sapiens, UniProt Q13177); conditions: PAK2(h), read-out: Inhibition rate
T6 construct: purchased Eurofins (Celle Lévescault)
T6 sequence (Q13177 whole entry): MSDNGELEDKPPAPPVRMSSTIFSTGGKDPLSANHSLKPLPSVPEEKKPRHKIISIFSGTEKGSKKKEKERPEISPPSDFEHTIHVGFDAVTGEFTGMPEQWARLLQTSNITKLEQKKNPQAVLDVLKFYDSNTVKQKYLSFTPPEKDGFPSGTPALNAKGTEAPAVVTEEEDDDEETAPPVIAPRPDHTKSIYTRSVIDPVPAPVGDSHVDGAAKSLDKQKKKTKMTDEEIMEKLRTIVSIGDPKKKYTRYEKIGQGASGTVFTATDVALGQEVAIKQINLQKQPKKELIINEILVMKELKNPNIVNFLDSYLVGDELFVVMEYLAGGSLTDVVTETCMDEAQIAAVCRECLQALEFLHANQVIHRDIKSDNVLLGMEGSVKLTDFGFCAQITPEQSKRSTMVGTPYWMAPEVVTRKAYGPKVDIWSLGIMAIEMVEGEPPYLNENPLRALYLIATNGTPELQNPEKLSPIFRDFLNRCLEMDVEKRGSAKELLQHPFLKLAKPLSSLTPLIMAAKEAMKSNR
Summary of the method: as §1

[7] = target: T7, 380 human recombinant protein kinases (Homo sapiens, UniProt Q13555); conditions: CaMKIIγ(h), read-out: Inhibition rate
T7 construct: purchased Eurofins (Celle Lévescault)
T7 sequence (Q13555 whole entry): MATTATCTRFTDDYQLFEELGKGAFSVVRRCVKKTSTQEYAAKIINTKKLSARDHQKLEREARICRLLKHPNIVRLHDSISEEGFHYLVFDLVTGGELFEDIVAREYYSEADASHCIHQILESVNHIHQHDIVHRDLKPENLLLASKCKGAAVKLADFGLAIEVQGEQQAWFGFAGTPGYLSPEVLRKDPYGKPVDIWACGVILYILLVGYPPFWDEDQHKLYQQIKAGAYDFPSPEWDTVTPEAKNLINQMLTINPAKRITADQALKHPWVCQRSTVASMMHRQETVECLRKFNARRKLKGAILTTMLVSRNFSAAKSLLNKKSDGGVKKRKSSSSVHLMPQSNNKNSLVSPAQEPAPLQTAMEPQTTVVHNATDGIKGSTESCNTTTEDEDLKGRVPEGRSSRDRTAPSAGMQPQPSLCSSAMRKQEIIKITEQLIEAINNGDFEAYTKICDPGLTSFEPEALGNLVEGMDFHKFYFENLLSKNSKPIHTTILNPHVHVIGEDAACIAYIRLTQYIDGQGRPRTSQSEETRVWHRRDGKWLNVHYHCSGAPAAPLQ
Summary of the method: as §1

[8] = target: T8, 380 human recombinant protein kinases (Homo sapiens, UniProt Q13882); conditions: BRK(h), read-out: Inhibition rate
T8 construct: purchased Eurofins (Celle Lévescault)
T8 sequence (Q13882 whole entry): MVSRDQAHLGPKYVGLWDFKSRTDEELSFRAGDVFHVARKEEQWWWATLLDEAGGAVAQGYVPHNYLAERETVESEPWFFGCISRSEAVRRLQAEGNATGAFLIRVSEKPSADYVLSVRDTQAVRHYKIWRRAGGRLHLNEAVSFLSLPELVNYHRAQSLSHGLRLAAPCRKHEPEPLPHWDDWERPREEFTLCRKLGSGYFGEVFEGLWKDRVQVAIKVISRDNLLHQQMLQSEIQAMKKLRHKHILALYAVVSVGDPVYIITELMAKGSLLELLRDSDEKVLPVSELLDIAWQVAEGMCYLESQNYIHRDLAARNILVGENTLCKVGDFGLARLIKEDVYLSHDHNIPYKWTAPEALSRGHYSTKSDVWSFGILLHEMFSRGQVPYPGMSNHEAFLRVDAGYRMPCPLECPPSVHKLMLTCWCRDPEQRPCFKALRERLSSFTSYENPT
Summary of the method: as §1

[9] = target: T9, 380 human recombinant protein kinases (Homo sapiens, UniProt Q13873); conditions: BMPR2(h), read-out: Inhibition rate
T9 construct: purchased Eurofins (Celle Lévescault)
T9 sequence (Q13873 27-1038): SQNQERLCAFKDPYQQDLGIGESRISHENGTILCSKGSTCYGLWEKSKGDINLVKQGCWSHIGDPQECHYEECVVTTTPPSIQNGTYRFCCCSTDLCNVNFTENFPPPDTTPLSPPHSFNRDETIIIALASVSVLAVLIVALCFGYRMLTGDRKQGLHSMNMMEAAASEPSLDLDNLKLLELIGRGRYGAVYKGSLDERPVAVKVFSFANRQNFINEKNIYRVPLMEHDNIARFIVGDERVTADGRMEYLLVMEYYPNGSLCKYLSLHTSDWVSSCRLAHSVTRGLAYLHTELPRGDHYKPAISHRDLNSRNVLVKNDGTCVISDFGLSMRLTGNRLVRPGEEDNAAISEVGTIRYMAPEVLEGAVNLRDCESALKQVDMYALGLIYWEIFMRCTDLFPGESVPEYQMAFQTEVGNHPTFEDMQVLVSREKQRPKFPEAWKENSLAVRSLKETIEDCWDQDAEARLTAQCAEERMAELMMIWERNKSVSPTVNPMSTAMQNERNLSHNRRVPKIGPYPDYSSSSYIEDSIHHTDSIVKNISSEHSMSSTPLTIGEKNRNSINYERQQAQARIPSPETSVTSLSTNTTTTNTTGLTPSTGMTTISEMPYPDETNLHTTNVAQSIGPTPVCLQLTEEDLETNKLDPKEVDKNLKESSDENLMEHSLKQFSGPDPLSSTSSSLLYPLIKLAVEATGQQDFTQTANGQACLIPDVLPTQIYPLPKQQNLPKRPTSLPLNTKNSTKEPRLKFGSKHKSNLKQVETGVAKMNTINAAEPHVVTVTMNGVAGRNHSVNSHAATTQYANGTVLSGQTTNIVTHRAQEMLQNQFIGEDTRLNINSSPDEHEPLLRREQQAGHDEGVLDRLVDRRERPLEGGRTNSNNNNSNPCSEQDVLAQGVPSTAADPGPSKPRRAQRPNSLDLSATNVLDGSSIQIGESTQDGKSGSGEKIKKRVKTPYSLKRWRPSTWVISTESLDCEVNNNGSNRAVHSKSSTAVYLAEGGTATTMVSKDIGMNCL
Summary of the method: as §1

T1 sequence (Q8IZX4 whole entry): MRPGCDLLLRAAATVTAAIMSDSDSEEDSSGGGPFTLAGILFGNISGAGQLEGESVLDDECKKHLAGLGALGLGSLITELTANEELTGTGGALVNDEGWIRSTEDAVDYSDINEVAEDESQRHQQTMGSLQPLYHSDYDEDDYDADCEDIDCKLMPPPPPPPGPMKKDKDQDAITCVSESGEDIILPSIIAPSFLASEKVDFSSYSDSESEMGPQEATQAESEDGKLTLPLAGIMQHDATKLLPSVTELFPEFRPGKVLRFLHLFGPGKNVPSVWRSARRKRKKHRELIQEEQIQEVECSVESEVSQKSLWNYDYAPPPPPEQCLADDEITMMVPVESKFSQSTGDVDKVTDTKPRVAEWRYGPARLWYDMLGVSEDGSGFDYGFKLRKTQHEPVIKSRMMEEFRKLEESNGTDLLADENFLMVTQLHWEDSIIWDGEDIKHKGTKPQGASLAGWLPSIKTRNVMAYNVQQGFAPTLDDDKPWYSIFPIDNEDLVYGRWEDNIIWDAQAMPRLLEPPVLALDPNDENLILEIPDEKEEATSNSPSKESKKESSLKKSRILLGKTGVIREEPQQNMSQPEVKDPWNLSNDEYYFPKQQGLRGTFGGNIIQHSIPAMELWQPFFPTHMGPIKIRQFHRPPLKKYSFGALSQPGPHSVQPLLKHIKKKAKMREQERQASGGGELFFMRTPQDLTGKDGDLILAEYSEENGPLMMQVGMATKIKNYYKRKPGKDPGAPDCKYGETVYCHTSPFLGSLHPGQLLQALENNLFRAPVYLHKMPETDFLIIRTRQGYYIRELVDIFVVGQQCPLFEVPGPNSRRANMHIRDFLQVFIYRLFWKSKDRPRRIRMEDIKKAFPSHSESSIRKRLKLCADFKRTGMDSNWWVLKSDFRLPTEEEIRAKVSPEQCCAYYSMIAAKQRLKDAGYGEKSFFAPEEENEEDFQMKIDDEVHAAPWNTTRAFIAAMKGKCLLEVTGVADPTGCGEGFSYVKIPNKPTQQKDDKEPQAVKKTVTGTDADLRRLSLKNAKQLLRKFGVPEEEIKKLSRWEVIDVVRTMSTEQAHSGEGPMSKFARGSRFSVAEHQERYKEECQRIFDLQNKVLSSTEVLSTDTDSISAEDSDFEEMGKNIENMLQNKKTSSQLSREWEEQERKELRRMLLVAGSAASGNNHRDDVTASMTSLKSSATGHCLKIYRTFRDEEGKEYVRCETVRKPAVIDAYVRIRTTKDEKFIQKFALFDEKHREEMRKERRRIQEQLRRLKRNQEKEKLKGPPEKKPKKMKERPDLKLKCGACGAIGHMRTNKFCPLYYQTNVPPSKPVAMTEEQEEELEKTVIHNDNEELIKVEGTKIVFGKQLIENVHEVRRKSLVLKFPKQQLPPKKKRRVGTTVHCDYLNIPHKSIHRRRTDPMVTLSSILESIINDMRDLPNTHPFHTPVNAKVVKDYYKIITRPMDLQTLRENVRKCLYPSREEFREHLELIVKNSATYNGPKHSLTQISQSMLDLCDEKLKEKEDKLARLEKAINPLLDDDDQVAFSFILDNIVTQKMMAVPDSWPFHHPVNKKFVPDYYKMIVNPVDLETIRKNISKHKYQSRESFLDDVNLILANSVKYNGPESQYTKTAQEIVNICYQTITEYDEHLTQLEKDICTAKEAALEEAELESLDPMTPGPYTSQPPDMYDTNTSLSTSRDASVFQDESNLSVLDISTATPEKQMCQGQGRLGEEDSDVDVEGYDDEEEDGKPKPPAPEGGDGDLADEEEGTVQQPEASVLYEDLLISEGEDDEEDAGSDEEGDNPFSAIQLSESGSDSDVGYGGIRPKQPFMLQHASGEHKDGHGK

SMILES: C=CC(=O)Nc1cc(-c2cc(-c3cc4c([nH]3)CCNC4=O)ccn2)ccc1OC(F)(F)F [compound 11]
- inhibition at 0.01 µM ([1]; 10 nM): 51%
- inhibition at 0.1 µM ([1]; 100 nM): 74%
- inhibition at 1 µM ([1]; 1000 nM): 80%
- inhibition at 0.01 µM ([2]; 10 nM): 3%
- inhibition at 0.1 µM ([2]; 100 nM): 10%
- inhibition at 1 µM ([2]; 1000 nM): 7%
- inhibition at 0.01 µM ([3]; 10 nM): 1%
- inhibition at 0.1 µM ([3]; 100 nM): -14%
- inhibition at 1 µM ([3]; 1000 nM): 9%
- inhibition at 0.01 µM ([4]; 10 nM): 50%
- inhibition at 0.1 µM ([4]; 100 nM): 83%
- inhibition at 1 µM ([4]; 1000 nM): 93%
- inhibition at 0.01 µM ([5]; 10 nM): 8%
- inhibition at 0.1 µM ([5]; 100 nM): 1%
- inhibition at 1 µM ([5]; 1000 nM): 2%
- inhibition at 0.01 µM ([6]; 10 nM): -3%
- inhibition at 0.1 µM ([6]; 100 nM): -5%
- inhibition at 1 µM ([6]; 1000 nM): -3%
- inhibition at 0.01 µM ([7]; 10 nM): -5%
- inhibition at 0.1 µM ([7]; 100 nM): 6%
- inhibition at 1 µM ([7]; 1000 nM): 18%
- inhibition at 0.01 µM ([8]; 10 nM): 0%
- inhibition at 0.1 µM ([8]; 100 nM): -5%
- inhibition at 1 µM ([8]; 1000 nM): -7%
- inhibition at 0.01 µM ([9]; 10 nM): 8%
- inhibition at 0.1 µM ([9]; 100 nM): 13%
- inhibition at 1 µM ([9]; 1000 nM): 28%

From PMC11233931, “Remodeling tumor‐associated macrophage for anti‐cancer effects by rational design of irreversible inhibition of mitogen‐activated protein kinase‐activated protein kinase 2” (MedComm, 2024)
